Measured values taken from publication PMC10647531, “Effects of Icariin and Its Metabolites on GPCR Regulation and MK-801-Induced Schizophrenia-Like Behaviors in Mice” (Molecules, 2023).

Experiments:
[1] = biological target: T1, vasopressin 1A receptor (V1AR) (Homo sapiens, UniProt P37288); assay type: cell-based; settings: 100 μM; stimulus AVP (10 nM)
T1 construct: host or cells: CHO-K1
Description: a All products including cell-line and reagents were provided by Cerep (Cel le L'Evescault, France).

Human D3R = biological target: T2, Human D3R (Homo sapiens, UniProt P35462); assay type: binding; settings: 50 μM
T2 construct: expressed in transfected cells; host or cells: CHO-K1 (membrane homogenates)
T2 sequence (P35462 whole entry): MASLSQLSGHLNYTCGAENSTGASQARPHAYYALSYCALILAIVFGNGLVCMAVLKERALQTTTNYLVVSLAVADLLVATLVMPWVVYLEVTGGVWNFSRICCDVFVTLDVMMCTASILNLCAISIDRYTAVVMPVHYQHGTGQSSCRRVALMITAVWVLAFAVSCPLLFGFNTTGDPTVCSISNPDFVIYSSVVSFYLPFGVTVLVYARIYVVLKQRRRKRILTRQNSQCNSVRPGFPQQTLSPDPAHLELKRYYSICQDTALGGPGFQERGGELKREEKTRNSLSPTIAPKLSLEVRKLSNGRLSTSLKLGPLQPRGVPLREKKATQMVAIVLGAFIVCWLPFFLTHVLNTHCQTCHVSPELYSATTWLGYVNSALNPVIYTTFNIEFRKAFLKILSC
Protocol: (§1) Next, 10 μM (f.c.) (+)-butaclamol (for D3R) and 1 μM (f.c.) atropine (for M2R) were used to detect nonspecific binding in the respective assays. The binding affinity of a test compound was calculated as the inhibition (%) of control (radioligand)-specific binding.

[2] = test system: ferrous-treated rat brain homogenates; experiment: Lipid peroxidation assay (TBARS); assay type: biochemical; settings: rat brain homogenate; mean ± SD of triplicate experiments
Protocol: Whole brain homogenates from male Sprague-Dawley rats (6 months old) were prepared according to procedures described in previous studies. […] After 1 h of incubation at 37 °C, the stop solution was added to the reaction mixture. After incubation in boiling water for 1 h, the reaction mixture was extracted with normal butanol and centrifuged (1300× g for 10 min).

MK-801-treated mice [3] = experiment: Acoustic startle response task (ASRT), prepulse inhibition; assay type: in vivo
Protocol: (§2) The mice were housed in the University Animal Care Unit for one week prior to the experiment. Each cage housed 10 mice, and all mice had unlimited access to water and food. […] The Institutional Animal Care and Use Committee of Kyung Hee University approved the mouse experimental protocols (approval number: KHUASP-22-530).
The ASRT was conducted using SR-LAB startle chambers (San Diego Instruments, San Diego, CA, USA), consisting of a box that can lightly confine the mice, a system that can generate sound stimuli regularly, equipment that can measure animal movements, a program that can digitize the measured stimuli, and a source and speaker that can provide sound. The ASRT sessions included three trials: non-stimulus (PPI-1), startle (pulse alone, PPI-2), and prepulse (prepulse + pulse, PPI-3). The PPI-1 trial consisted of background noise only. The PPI-2 trial consisted of constant noise (80−120 dB, five sections) for 40 ms. The PPI-3 trial consisted of a noise prepulse ([…], which are 3, 6, 12, and 16 dB above the background noise, respectively) for 20 ms, a delay for 80 ms, and a 120 dB startle pulse for 40 ms. The percentage score for PPI was calculated as follows: % PPI = [(PPI-2 – PPI-3)/(PPI-2)] × 100(%).

MK-801-treated mice [4] = experiment: Social novelty preference test (SNPT); assay type: in vivo
Description: as §2
Three chambers in a rectangular Plexiglas box (w × d × h: 94 × 28 × 30 cm) were used for the SNPT. The left, right, and central chambers were all joined together by openings (w × d: 6 × 28 cm). On the center of the left and right chambers, an iron muntin cylinder lockup (h × d: 11 × 12 cm) was installed. A test mouse was allowed to interact with another mouse that was trapped in the cylinder lockup. A test mouse was placed in the middle chamber during the acclimatization trial (trial-1, 10 min) and was allowed to freely explore all three compartments through the apertures. A mouse that was younger than the test mouse was placed in a lockup in the first sociability experiment (trial-2) following trial-1, while the other lockup remained. The test mouse was taken to the center compartment and allowed to wander around. The second sociability trial (trial-3) was performed immediately after trial-2. A new mouse that was younger than the test mouse was put in the empty cell during trial-3 (10 min), and the test mouse was put into an empty lockup and allowed to explore.

M4 mACh receptor (M4R) [5] = biological target: T3, M4 mACh receptor (M4R) (Homo sapiens, UniProt P08173); experiment: cAMP agonist assay (M4R); settings: 100 μM
T3 sequence (P08173 1-479): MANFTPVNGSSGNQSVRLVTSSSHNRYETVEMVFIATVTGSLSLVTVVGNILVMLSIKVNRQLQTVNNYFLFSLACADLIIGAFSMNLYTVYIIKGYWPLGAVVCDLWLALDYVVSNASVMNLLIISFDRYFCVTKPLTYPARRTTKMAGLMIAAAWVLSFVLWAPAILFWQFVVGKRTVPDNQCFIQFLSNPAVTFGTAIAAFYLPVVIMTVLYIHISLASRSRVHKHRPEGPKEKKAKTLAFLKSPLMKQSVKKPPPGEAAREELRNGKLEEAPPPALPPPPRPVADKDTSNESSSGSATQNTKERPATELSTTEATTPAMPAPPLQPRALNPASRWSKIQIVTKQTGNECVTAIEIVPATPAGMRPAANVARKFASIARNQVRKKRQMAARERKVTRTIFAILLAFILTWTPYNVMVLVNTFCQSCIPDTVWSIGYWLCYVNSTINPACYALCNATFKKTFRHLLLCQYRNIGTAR

hMAO-A = biological target: T4, hMAO-A (Homo sapiens, UniProt P21397); experiment: In vitro hMAO-inhibitory assay (MAO-Glo), hMAO-A; assay type: biochemical; settings: mean ± SD of triplicate experiments
T4 sequence (P21397 1-527): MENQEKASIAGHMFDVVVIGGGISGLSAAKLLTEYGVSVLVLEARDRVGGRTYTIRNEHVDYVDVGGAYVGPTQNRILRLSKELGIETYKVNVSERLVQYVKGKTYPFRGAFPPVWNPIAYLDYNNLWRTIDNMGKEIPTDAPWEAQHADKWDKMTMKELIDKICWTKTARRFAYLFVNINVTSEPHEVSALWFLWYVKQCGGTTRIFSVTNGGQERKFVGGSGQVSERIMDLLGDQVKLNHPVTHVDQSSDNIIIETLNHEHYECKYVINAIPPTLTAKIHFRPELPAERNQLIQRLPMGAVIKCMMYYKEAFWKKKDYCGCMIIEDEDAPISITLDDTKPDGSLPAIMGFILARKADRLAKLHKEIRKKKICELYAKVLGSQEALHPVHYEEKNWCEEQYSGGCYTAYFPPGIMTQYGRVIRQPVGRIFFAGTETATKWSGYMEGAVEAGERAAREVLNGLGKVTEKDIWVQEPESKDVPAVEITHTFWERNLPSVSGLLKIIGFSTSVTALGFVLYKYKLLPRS
Description: (§3) A homogeneous luminescent assay using the MAO-Glo™ assay kit (Promega, Madison, WI, USA) was used to evaluate the hMAO-inhibitory activity of icariin and its metabolites according to the manufacturer’s protocol.

hMAO-B = biological target: T5, hMAO-B (Homo sapiens, UniProt P27338); experiment: In vitro hMAO-inhibitory assay (MAO-Glo), hMAO-B; assay type: biochemical; settings: mean ± SD of triplicate experiments
T5 sequence (P27338 1-520): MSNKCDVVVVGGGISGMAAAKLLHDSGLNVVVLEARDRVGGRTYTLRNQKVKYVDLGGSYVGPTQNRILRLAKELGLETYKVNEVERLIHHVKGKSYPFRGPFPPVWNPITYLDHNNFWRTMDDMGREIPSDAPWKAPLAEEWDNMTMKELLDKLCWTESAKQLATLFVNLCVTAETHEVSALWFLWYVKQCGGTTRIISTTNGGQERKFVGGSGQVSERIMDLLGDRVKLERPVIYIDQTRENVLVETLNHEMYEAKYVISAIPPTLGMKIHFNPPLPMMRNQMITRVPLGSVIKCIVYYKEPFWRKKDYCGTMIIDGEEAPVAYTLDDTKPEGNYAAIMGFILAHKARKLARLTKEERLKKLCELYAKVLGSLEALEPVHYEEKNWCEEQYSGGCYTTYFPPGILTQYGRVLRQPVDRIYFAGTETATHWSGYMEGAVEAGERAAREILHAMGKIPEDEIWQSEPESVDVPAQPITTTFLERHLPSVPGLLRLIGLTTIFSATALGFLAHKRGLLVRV
Description: as §3

[6] = biological target: T6, muscarinic acetylcholine M2 receptor (M2R) (Homo sapiens, UniProt P08172); settings: 100 μM; control agonist 300 nM ACh
T6 sequence (P08172 1-466): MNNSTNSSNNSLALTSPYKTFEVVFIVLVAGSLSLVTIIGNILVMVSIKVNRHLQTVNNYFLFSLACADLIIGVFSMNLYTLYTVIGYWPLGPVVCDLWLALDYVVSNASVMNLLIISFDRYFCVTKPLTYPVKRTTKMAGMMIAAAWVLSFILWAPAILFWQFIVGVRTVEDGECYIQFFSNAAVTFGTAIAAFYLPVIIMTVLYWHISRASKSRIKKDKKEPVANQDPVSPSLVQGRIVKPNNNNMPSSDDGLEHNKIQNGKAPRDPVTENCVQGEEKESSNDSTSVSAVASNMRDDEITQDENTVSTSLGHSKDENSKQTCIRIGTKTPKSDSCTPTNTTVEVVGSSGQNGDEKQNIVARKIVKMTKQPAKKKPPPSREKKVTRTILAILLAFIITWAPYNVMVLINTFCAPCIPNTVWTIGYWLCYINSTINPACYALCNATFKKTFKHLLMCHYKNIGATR

[7] = set-up: method as in PMID 31844591; settings: cited from earlier work
[8] = biological target: T6, muscarinic acetylcholine M2 receptor (M2R); experiment: Radioligand binding assay ([3H]AF-DX 384, CHO-M2R membrane homogenates); set-up: host or cells: CHO-K1
Protocol: as §1

M4 mACh receptor (M4R) [9] = biological target: T3, M4 mACh receptor (M4R); experiment: cAMP antagonist assay (M4R); settings: read-out: Antagonist effect (%) M4 (inhibition of the control agonist response)

T1 sequence (P37288 whole entry): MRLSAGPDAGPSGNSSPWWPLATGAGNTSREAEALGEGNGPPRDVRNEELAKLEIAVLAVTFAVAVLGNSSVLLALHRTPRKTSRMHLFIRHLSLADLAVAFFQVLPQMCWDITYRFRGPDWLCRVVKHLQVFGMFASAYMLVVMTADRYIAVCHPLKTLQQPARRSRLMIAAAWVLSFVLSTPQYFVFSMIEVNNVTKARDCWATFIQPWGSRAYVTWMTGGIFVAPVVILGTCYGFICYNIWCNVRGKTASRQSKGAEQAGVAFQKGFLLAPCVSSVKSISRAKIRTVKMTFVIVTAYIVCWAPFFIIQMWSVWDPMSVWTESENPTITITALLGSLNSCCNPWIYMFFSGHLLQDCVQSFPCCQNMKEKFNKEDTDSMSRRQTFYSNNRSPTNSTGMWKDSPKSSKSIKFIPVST

In the case of icariside II, the “antagonist effect on V1AR” value [1] is reported as 42.0%, the “radioligand binding to the target binding site (D3R)” value (Human D3R) is reported as “almost completely blocked” and the IC50 [2] is reported as 70.4 ± 2.04 µM. The “effect on MK-801-induced PPI deficits” value (MK-801-treated mice [3]; 1, 3, and 10 mg/kg, p.o.) was “no significant effects”, the “effect on MK-801-induced social interaction deficits” value (MK-801-treated mice [4]; 1, 3, and 10 mg/kg, p.o.) was “significantly reversed” and the “agonist effect assay on M4R” value (M4 mACh receptor (M4R) [5]) was “has an agonist effect”.

With `C[C@]12N[C@H](Cc3ccccc31)c1ccccc12` [MK-801] the acoustic startle amplitude (MK-801-treated mice [3]; 0.2 mg/kg alone (i.p.), at 120 dB) was “significantly increased”, the “prepulse inhibition (PPI)” value (MK-801-treated mice [3]; 0.2 mg/kg alone (i.p.), at +3, +6, +12, and +16 dB above the background noise (70 dB)) was “decreased” and the “amount of time spent in the chamber with the unknown mouse” value (MK-801-treated mice [4]; alone, 0.2 mg/kg, i.p., compared with control group) was “considerably reduced”.

For `COc1ccc(-c2oc3c(CC=C(C)C)c(O[C@@H]4O[C@H](CO)[C@@H](O)[C@H](O)[C@H]4O)cc(O)c3c(=O)c2O[C@@H]2O[C@@H](C)[C@H](O)[C@@H](O)[C@H]2O)cc1` [Icariin, icariin], the IC50 (hMAO-A) was 422 ± 7.07 µM, the IC50 (hMAO-B) was greater than 500 µM and the IC50 [2] was 301 ± 2.16 µM. For the same compound, the “effect on MK-801-induced PPI deficits” value (MK-801-treated mice [3]; 3 and 10 mg/kg, p.o., at +12 and +16 dB above the background noise) was “significantly reversed”, the “effect on MK-801-induced social interaction deficits” value (MK-801-treated mice [4]; 3 and 10 mg/kg, p.o.) was “significantly reversed” and the “agonist effect assay on M4R” value (M4 mACh receptor (M4R) [5]) was “opposite effect to that of icariside II”.

Compound `Cc1c(C)c2c(c(C)c1O)CCC(C)(C(=O)O)O2` (centres unmarked) [Trolox, reference compound] has an IC50 [2] of 32.3 ± 3.21 µM.

For `O=C1CCc2ccc(OCCCCN3CCN(c4cccc(Cl)c4Cl)CC3)cc2N1` [aripiprazole, reference compound], the “effect on MK-801-induced PPI deficits” value (MK-801-treated mice [3]; 1 mg/kg, i.p., at +12 and +16 dB above the background noise) was “significantly reversed” and the “effect on MK-801-induced social interaction deficits” value (MK-801-treated mice [4]; 1 mg/kg, i.p.) was “significantly reversed”.

`COc1ccc(-c2oc3c(CC=C(C)C)c(O)cc(O)c3c(=O)c2O)cc1` [Icaritin, icaritin] showed an IC50 (hMAO-A) greater than 500 µM, an IC50 (hMAO-B) greater than 500 µM and an IC50 [2] of 81.3 ± 3.09 µM. The “effect on MK-801-induced PPI deficits” value (MK-801-treated mice [3]; 1, 3, and 10 mg/kg, p.o.) was “no significant effects”, the “effect on MK-801-induced social interaction deficits” value (MK-801-treated mice [4]; 3 and 10 mg/kg, p.o.) was “significantly reversed” and the “Antagonist effect (%) M2” value [6] was 54.55%. The blood-brain barrier penetration [7] was “could penetrate the blood-brain barrier (BBB) readily”, the “Radioligand specific binding (%) (M2R)” value ([8]; 100 μM) was 81.95% and the “Radioligand specific binding (%) (M2R)” value ([8]; 150 μM) was 64.00%. For the same compound, the “blocked radioligand binding to the target binding site (M2R)” value ([8]; 150 μM) was 36% and the inhibition at 100 µM (M4 mACh receptor (M4R) [9]) was 32.4%.
